# Test results as given in patent US20200268702A1, “METHODS OF TREATING […]” (Amarin Pharmaceuticals Ireland Limited, priority 2013, published 2020).
# Tested on: patients with fasting triglyceride levels >500 mg/dL
# Experiment: MARINE study: 12-week placebo-controlled study of AMR101, metabolic syndrome subset
# Assay type: in vivo, human
# Conditions: 12 weeks, subjects with metabolic syndrome
# Experimental: A multi-center, placebo-controlled randomized, double-blind, 12-week study with an open-label extension was performed to evaluate the efficacy and safety of AMR101 in patients with fasting triglyceride levels >500 mg/dL. The primary objective of the study was to determine the efficacy of AMR101 2 g daily and 4 g daily, compared to placebo, in lowering fasting TG levels in patients with fasting TG levels 500 mg/dL and 1500 mg/dL (5.65 mmol/L and 16.94 mmol/L).
# The population for this study was men and women (women of childbearing potential will need to be on contraception or practice abstinence) >18 years of age with a body mass index ≤45 kg/m^2 who were not on lipid-altering therapy or were currently on lipid-altering therapy. Patients currently on statin therapy (with or without ezetimibe) were evaluated by the investigator as to whether this therapy can be safely discontinued at screening, or if it should be continued. If statin therapy (with or without ezetimibe) was to be continued, dose(s) must have been stable […] prior to randomization. Patients taking non-statin, lipid-altering medications (niacin >200 mg/day, fibrates, fish oil, other products containing omega-3 fatty acids, or other herbal products or dietary supplements with potential lipid-altering effects), either alone or in combination with statin therapy (with or without ezetimibe), must have been able to safely discontinue non-statin, lipid-altering therapy at screening.
# Approximately 240 patients were randomized at approximately 50 centers in North America, South America, Central America, Europe, India, and South Africa. The study was a 58- to 60-week, Phase 3, multi-center study consisting of 3 study periods: (1) A 6- to 8-week screening period that included a diet and lifestyle stabilization and washout period and a TG qualifying period; (2) A 12-week, double-blind, randomized, placebo-controlled treatment period; and (3) A 40-week, open-label, extension period.
# After confirmation of qualifying fasting TG values, eligible patients entered a 12-week, randomized, double-blind treatment period. At Visit 4 (Week 0), patients were randomly assigned to 1 of the following treatment groups: • AMR101 2 g daily, • AMR101 4 g daily, or • Placebo.
# Eligible patients were randomly assigned at Visit 4 (Week 0) to receive orally AMR101 2 g daily, AMR101 4 g daily, or placebo for the 12-week double-blind treatment period. AMR101 was provided in 1 g liquid-filled, oblong, gelatin capsules. The matching placebo capsule was filled with light liquid paraffin and contained 0 g of AMR101. During the double-blind treatment period, patients took 2 capsules (AMR101 or matching placebo) in the morning and 2 in the evening for a total of 4 capsules per day. Patients in the AMR101 2 g/day treatment group received 1 AMR101 1 g capsule and 1 matching placebo capsule in the morning and in the evening. Patients in the AMR101 4 g/day treatment group received 2 AMR101 1 g capsules in the morning and evening.
# The primary efficacy variable for the double-blind treatment period was percent change in TG from baseline to Week 12 endpoint. […]
smiles,measurement,setting,value
"CC/C=C\C/C=C\C/C=C\C/C=C\C/C=C\CCCC(=O)OCC [AMR101, ethyl eicosapentaenoate]","Apo B, Change from Baseline, %","2 g/day, No statins",2.8%
same,"Apo B, End of Treatment, median (IQR)","2 g/day, No statins",121 mg/dL
same,"Apo B, Median % Change From Baseline vs Placebo","2 g/day, No statins",−1.8%
same,"HDL-C, Change from Baseline, %","2 g/day, No statins",0.0%
same,"HDL-C, End of Treatment, median (IQR)","2 g/day, No statins",26 mg/dL
same,"HDL-C, Median % Change From Baseline vs Placebo","2 g/day, No statins",0.3%
same,"LDL-C, Change from Baseline, %","2 g/day, No statins",1.9%
same,"LDL-C, End of Treatment, median (IQR)","2 g/day, No statins",95 mg/dL
same,"LDL-C, Median % Change From Baseline vs Placebo","2 g/day, No statins",2.8%
same,"Non-HDL-C, Change from Baseline, %","2 g/day, No statins",−1.1%
same,"Non-HDL-C, End of Treatment, median (IQR)","2 g/day, No statins",218 mg/dL
same,"Non-HDL-C, Median % Change From Baseline vs Placebo","2 g/day, No statins",−7.8%
same,"TG, Change from Baseline, %","2 g/day, No statins",−10.1%
same,"TG, End of Treatment, median (IQR)","2 g/day, No statins",586 mg/dL
same,"TG, Median % Change From Baseline vs Placebo","2 g/day, No statins",−17.2%
same,"hsCRP, Change from Baseline, %","2 g/day, No statins",38.0%
same,"hsCRP, End of Treatment, median (IQR)","2 g/day, No statins",2.5 (3.10) mg/L
same,"hsCRP, Median % Change From Baseline vs Placebo","2 g/day, No statins",−7.1%
same,"Apo B, Change from Baseline, %","2 g/day, Statins",−0.9%
same,"Apo B, End of Treatment, median (IQR)","2 g/day, Statins",105 mg/dL
same,"Apo B, Median % Change From Baseline vs Placebo","2 g/day, Statins",−9.1%
same,"HDL-C, Change from Baseline, %","2 g/day, Statins",0.0%
same,"HDL-C, End of Treatment, median (IQR)","2 g/day, Statins",30 mg/dL
same,"HDL-C, Median % Change From Baseline vs Placebo","2 g/day, Statins",4.2%
same,"LDL-C, Change from Baseline, %","2 g/day, Statins",−3.8%
same,"LDL-C, End of Treatment, median (IQR)","2 g/day, Statins",77.5 mg/dL
same,"LDL-C, Median % Change From Baseline vs Placebo","2 g/day, Statins",6.2%
same,"Non-HDL-C, Change from Baseline, %","2 g/day, Statins",10.1%
same,"Non-HDL-C, End of Treatment, median (IQR)","2 g/day, Statins",206 mg/dL
same,"Non-HDL-C, Median % Change From Baseline vs Placebo","2 g/day, Statins",−10.9%
same,"TG, Change from Baseline, %","2 g/day, Statins",14.5%
same,"TG, End of Treatment, median (IQR)","2 g/day, Statins",708 mg/dL
same,"TG, Median % Change From Baseline vs Placebo","2 g/day, Statins",−33.0%
same,"hsCRP, Change from Baseline, %","2 g/day, Statins",14.3%
same,"hsCRP, End of Treatment, median (IQR)","2 g/day, Statins",1.6 (2.20) mg/L
same,"hsCRP, Median % Change From Baseline vs Placebo","2 g/day, Statins",−36.6%
same,"Apo B, Change from Baseline, %","2 g/day, Total",2.5%
same,"Apo B, End of Treatment, median (IQR)","2 g/day, Total",117 mg/dL
same,"Apo B, Median % Change From Baseline vs Placebo","2 g/day, Total",−3.3%
same,"HDL-C, Change from Baseline, %","2 g/day, Total",0.0%
same,"HDL-C, End of Treatment, median (IQR)","2 g/day, Total",28 mg/dL
same,"HDL-C, Median % Change From Baseline vs Placebo","2 g/day, Total",0.9%
same,"LDL-C, Change from Baseline, %","2 g/day, Total",−2.5%
same,"LDL-C, End of Treatment, median (IQR)","2 g/day, Total",94 mg/dL
same,"LDL-C, Median % Change From Baseline vs Placebo","2 g/day, Total",3.6%
same,"Non-HDL-C, Change from Baseline, %","2 g/day, Total",0.0%
same,"Non-HDL-C, End of Treatment, median (IQR)","2 g/day, Total",214 mg/dL
same,"Non-HDL-C, Median % Change From Baseline vs Placebo","2 g/day, Total",−8.3%
same,"TG, Change from Baseline, %","2 g/day, Total",−4.3%
same,"TG, End of Treatment, median (IQR)","2 g/day, Total",606 mg/dL
same,"TG, Median % Change From Baseline vs Placebo","2 g/day, Total",−19.1%
same,"hsCRP, Change from Baseline, %","2 g/day, Total",25.1%
same,"hsCRP, End of Treatment, median (IQR)","2 g/day, Total",2.4 (3.20) mg/L
same,"hsCRP, Median % Change From Baseline vs Placebo","2 g/day, Total",−14.5%
same,"Apo B, Change from Baseline, %","4 g/day, No statins",−4.3%
same,"Apo B, End of Treatment, median (IQR)","4 g/day, No statins",123 mg/dL
same,"Apo B, Median % Change From Baseline vs Placebo","4 g/day, No statins",−9.2%
same,"HDL-C, Change from Baseline, %","4 g/day, No statins",0.0%
same,"HDL-C, End of Treatment, median (IQR)","4 g/day, No statins",25 mg/dL
same,"HDL-C, Median % Change From Baseline vs Placebo","4 g/day, No statins",−4.2%
same,"LDL-C, Change from Baseline, %","4 g/day, No statins",−1.5%
same,"LDL-C, End of Treatment, median (IQR)","4 g/day, No statins",92 mg/dL
same,"LDL-C, Median % Change From Baseline vs Placebo","4 g/day, No statins",−2.0%
same,"Non-HDL-C, Change from Baseline, %","4 g/day, No statins",−9.9%
same,"Non-HDL-C, End of Treatment, median (IQR)","4 g/day, No statins",220 mg/dL
same,"Non-HDL-C, Median % Change From Baseline vs Placebo","4 g/day, No statins",−18.5%
same,"TG, Change from Baseline, %","4 g/day, No statins",−26.6%
same,"TG, End of Treatment, median (IQR)","4 g/day, No statins",582 mg/dL
same,"TG, Median % Change From Baseline vs Placebo","4 g/day, No statins",−28.5%
same,"hsCRP, Change from Baseline, %","4 g/day, No statins",0.0%
same,"hsCRP, End of Treatment, median (IQR)","4 g/day, No statins",2.3 (2.30) mg/L
same,"hsCRP, Median % Change From Baseline vs Placebo","4 g/day, No statins",−78.0%
same,"hsCRP, Median % Change From Baseline vs Placebo","4 g/day, No statins, listed as IPE",−27.6%
same,"Apo B, Change from Baseline, %","4 g/day, Statins",−1.6%
same,"Apo B, End of Treatment, median (IQR)","4 g/day, Statins",100 mg/dL
same,"Apo B, Median % Change From Baseline vs Placebo","4 g/day, Statins",−9.0%
same,"HDL-C, Change from Baseline, %","4 g/day, Statins",−5.2%
same,"HDL-C, End of Treatment, median (IQR)","4 g/day, Statins",29 mg/dL
same,"HDL-C, Median % Change From Baseline vs Placebo","4 g/day, Statins",0.3%
same,"LDL-C, Change from Baseline, %","4 g/day, Statins",−11.4%
same,"LDL-C, End of Treatment, median (IQR)","4 g/day, Statins",72.5 mg/dL
same,"LDL-C, Median % Change From Baseline vs Placebo","4 g/day, Statins",−4.3%
same,"Non-HDL-C, Change from Baseline, %","4 g/day, Statins",−7.6%
same,"Non-HDL-C, End of Treatment, median (IQR)","4 g/day, Statins",172 mg/dL
same,"Non-HDL-C, Median % Change From Baseline vs Placebo","4 g/day, Statins",−27.4%
same,"TG, Change from Baseline, %","4 g/day, Statins",−29.1%
same,"TG, End of Treatment, median (IQR)","4 g/day, Statins",457 mg/dL
same,"TG, Median % Change From Baseline vs Placebo","4 g/day, Statins",−62.6%
same,"hsCRP, Change from Baseline, %","4 g/day, Statins",−35.1%
same,"hsCRP, End of Treatment, median (IQR)","4 g/day, Statins",2.7 (3.70) mg/L
same,"hsCRP, Median % Change From Baseline vs Placebo","4 g/day, Statins",−27.6%
same,"hsCRP, Median % Change From Baseline vs Placebo","4 g/day, Statins, listed as IPE",−78.0%
same,"Apo B, Change from Baseline, %","4 g/day, Total",−3.5%
same,"Apo B, End of Treatment, median (IQR)","4 g/day, Total",120 mg/dL
same,"HDL-C, Change from Baseline, %","4 g/day, Total",0.0%
same,"HDL-C, End of Treatment, median (IQR)","4 g/day, Total",26 mg/dL
same,"HDL-C, Median % Change From Baseline vs Placebo","4 g/day, Total",−3.0%
same,"LDL-C, Change from Baseline, %","4 g/day, Total",−4.1%
same,"LDL-C, End of Treatment, median (IQR)","4 g/day, Total",89 mg/dL
same,"Non-HDL-C, Change from Baseline, %","4 g/day, Total",−9.6%
same,"Non-HDL-C, End of Treatment, median (IQR)","4 g/day, Total",207 mg/dL
same,"TG, Change from Baseline, %","4 g/day, Total",−26.8%
same,"TG, End of Treatment, median (IQR)","4 g/day, Total",504 mg/dL
same,"hsCRP, Change from Baseline, %","4 g/day, Total",−2.9%
same,"hsCRP, End of Treatment, median (IQR)","4 g/day, Total",2.4 (2.95) mg/L
same,"Apo B, Median % Change From Baseline vs Placebo","4 g/day, Total, listed as IPE",−9.1%
same,"LDL-C, Median % Change From Baseline vs Placebo","4 g/day, Total, listed as IPE",−3.2%
same,"Non-HDL-C, Median % Change From Baseline vs Placebo","4 g/day, Total, listed as IPE",−19.9%
same,"TG, Median % Change From Baseline vs Placebo","4 g/day, Total, listed as IPE",−35.0%
same,"hsCRP, Median % Change From Baseline vs Placebo","4 g/day, Total, listed as IPE",−40.0%
